The values below are quoted from earlier work in patent US12653891B2, “Stable glucocorticoid formulation” (AVM Biotechnology, LLC, priority 2018, dated 2026).

Where a name gives a salt, the structure may show the parent alone. Read-outs that look alike come from different tables or passages of the source.

Assay in series [1]: not given
This is another data set of the same source.

Consider `CC(O)CO` (stereo not shown) [Propylene glycol], for which the “Threshold (EMA/CHMP/334655/2013)” value runs as follows: (5 years up to 17 years and adults) 500 mg/kg; (29 days up to 4 years) 50 mg/kg; (neonates up to 28 days) 1 mg/kg. Moreover, the “Amount that can accumulate and cause lactic acidosis, CNS depression, coma, hypoglycemia, seizures, hemolysis” value (IV) is given as at least 3 g/day.
`C[C@@H]1C[C@H]2[C@@H]3CCC4=CC(=O)C=C[C@]4(C)[C@@]3(F)[C@@H](O)C[C@]2(C)[C@@]1(O)C(=O)COP(=O)(O)O` [Dexamethasone phosphate (as sodium), 9-fluoro-11b,17,21-trihydroxy-16a-methylpregna-1,4-diene-3,20-dione 21-(dihydrogen phosphate) Disodium Salt]: in series [1] (alcohol), the Solubility in alcohol entry was “slightly soluble”. For the same molecule, in series [1] (chloroform and ether), the “Solubility in chloroform and ether” value is reported as “practically insoluble”. Besides, the Solubility in dioxan result in series [1] (dioxan) is listed as “very slightly soluble”.
